Assays:
MNV = MNV CPE reduction assay (MTS) in RAW 264.7 cells; format: cell-based, mouse norovirus (MNV-1.CW1); conditions: Norovirus, RAW264.7, in Mus musculus
Procedure: The newly prepared compounds 2–7 and 34–35 were evaluated for their antiviral effect against the genogroup V mouse norovirus (MNV) using the mouse macrophage cell line RAW264.7. This assay evaluates the ability of the compounds to protect infected cells from the virus-induced cytopathic effect, thus being suitable to identify inhibition of virus replication at every step of the virus life cycle, and representing a robust cellular assay available for the rapid evaluation of potential norovirus inhibitors. Compounds identified using MNV have shown effects against HuNoV in vitro and in vivo, as in the case of nucleoside RdRp inhibitor 2′-C-methylcytidine (2CMC)[34]–[36]. Unfortunately, despite not presenting the aqueous solubility issues we had previously encountered for 1[29], no significant antiviral effect could be observed in this assay for the new compounds up to the maximum concentration tested. The new structural modifications, despite retaining inhibition of the RdRp in an isolated enzyme activity assay and showing no cytotoxic effects at the test concentrations in the MNV antiviral assay (Supplementary Table S1), are correlated with a lack of antiviral activity. As these new structures present the same limitation of most non-nucleoside HuNoV polymerase inhibitors reported so far[22], we were prompted to apply a different computer-aided strategy to further modify the scaffold of 1, with the aim to achieve an antiviral effect in cellular systems. […]
Since the main scope of this work was to find new norovirus inhibitors which show antiviral effects against both the HuNoV RdRp and in norovirus-infected cells, priority was given to the evaluation of most of the new molecules for their antiviral activity against MNV in infected RAW cells. The nucleoside 2′-C-methylcytidine was used as positive control. The test compounds were evaluated at eight different concentrations (range 0.6–100 µM) and their ability to reduce the virus-induced cytopathic effect was assessed.
Cells and virus: MNV (virus strain MNV-1.CW1) was propagated in RAW 264.7 cells grown in DMEM (Life Technologies, Gent, Belgium) supplemented with 10% or 2% FBS, 2 mM L-glutamine, 20 mM HEPES, 0.075 g/L sodium bicarbonate, 1 mM sodium pyruvate, 100 U penicillin/mL and 100 µg/mL streptomycin at 37 °C in a humidified atmosphere of 5% CO2. The human norovirus GI.1 replicon harboring gastric tumor-1 cell line (HGT-NV) (kindly provided by Dr. Ian Goodfellow, University of Cambridge) was maintained in DMEM supplemented with 10% FBS, 2mM L-glutamine, 0.075 g/L sodium bicarbonate and 1.0 mg/ml of Geneticin (G418; Life Technologies), at 37 °C in a humidified atmosphere of 5% CO2[34].
Antiviral assay with MNV: The antiviral activity of the Compounds was determined using an MTS [3-(4,5-dimethylthiazol-2-yl)-5-(3-carboxymethoxyphenyl)-2-(4-sulfophenyl)-2H-tetrazolium]-based cytopathic effect (CPE) reduction assay. […] Then, a MTS-phenazinemethosulfate (MTS/PMS) stock solution [(2 mg/mL MTS (Promega, Leiden, The Netherlands) and 46 µg/mL PMS (Sigma–Aldrich, Bornem, Belgium) in PBS at pH 6–6.5)] was diluted 1/20 in MEM (Life Technologies, Gent, Belgium) and 75 µL were added to each well. After 2 h, the optical density (OD) was read at 498 nm. The %CPE reduction was calculated as [(ODtreated)MNV − ODVC]/[ODCC − ODVC] × 100, where ODCC represents the OD of the uninfected untreated cells, whereas ODVC and (ODtreated)MNV represent the OD of infected untreated cells and virus-infected cells treated with a compound concentration, respectively. The 50% effective concentration (EC50) was defined as the compound concentration that protected 50% of the cells from virus-induced CPE[34].

[1] = Cytotoxicity by the MTS method on uninfected cells; format: cell-based; conditions: mouse, uninfected RAW 264.7 cells
Procedure: Cytotoxicity: The cytotoxicity of the Compounds was evaluated by the MTS method, by exposing uninfected cells to the same concentrations of compounds for 3 days. The %cell viability was calculated as (ODtreated/ODCC) × 100, where ODCC is the OD of uninfected untreated cells and ODtreated are uninfected cells treated with compound. The CC50 was defined as the compound concentration that reduces the number of viable cells by 50%[34].

HuNoV (GII.4) RdRp = HuNoV (GII.4) RdRp (Norovirus Hu/GII.4/Sydney/NSW0514/2012/AU, UniProt K4L8Z7); assay: Quantitative fluorescent RdRp activity assay (PicoGreen, poly(C) template); format: biochemical, human norovirus Sydney 2012; conditions: for IC50: HuNoV (GII.4) RdRp activity, six concentrations 0.1–100 µM, mean ± SD; for inhibition at 20 µM: read-out: inhibition of HuNoV RdRp activity at fixed concentration
Procedure: The newly synthesised compounds, including the carboxylate ester derivatives 34–35 and 7 from the Core Hopping approach, were evaluated for their enzymatic inhibition of human norovirus Sydney 2012 (HuNoV (GII.4)) RdRp activity in vitro, using a quantitative fluorescent assay. Compounds were tested at six different concentrations (concentration range examined: 0.1–100 µM) and compared to the relative activity of mock treated samples containing the vehicle only (0.5% DMSO [vol/vol]). PPNDS [Pyridoxal-5′-phosphate-6-(2′-naphthylazo-6′-nitro-4′,8′-disulfonate) tetrasodium salt], a previously reported potent inhibitor of NoV RdRp activity, and 1 were used as positive controls. Dose-dependent inhibitory response curves were used to establish IC50 values for the eight test compounds, as reported in Table 1 (see also Supplementary Fig. S1).
The newly prepared compounds 48–60 were initially evaluated against norovirus Sydney 2012 RdRp activity in vitro using a quantitative fluorescent assay. Compounds were tested at a fixed concentration of 20 µM and compared to the relative activity of mock treated samples. PPNDS and 1 were used as positive controls. […] These two rings are structural features present in 1 and in one of its derivatives we have previously reported. […] From these observations, the thiophene ring appears not to influence inhibitory activity. Derivatives in which the central core of 48 has been used to link the two terminal hydrophobic rings of 1 or of its derivatives we have previously reported[25] (55, 57, 58) appear to retain the RdRp inhibitory activity found for 48 (~20% at 20 µM). A similar effect is obtained when a sulfonyl group, as in our hit 1, is used to link ring 2, regardless if it is a thiazole (59) or an unsubstituted phenyl ring (60), to the rest of the molecule. […] Overall, even if showing a reduced biochemical activity in comparison with 1, some of the new derivatives can be considered as modest HuNoV RdRp inhibitors at 20 µM.
Fluorescent RdRp activity assays were carried out as previously described[12],[29]. Briefly, RdRp activity was quantified by monitoring the formation of double-stranded RNA (dsRNA) from a single stranded homopolymeric template, poly(C) (Sigma Aldrich), using the fluorescent dye PicoGreen (Life Technologies, Carlsbad, CA, USA). RdRp assays were performed in 384-well plates, and each reaction mixture contained 400 ng enzyme, 45 μM GTP, 10 ng/μL poly(C) RNA, 2.5 mM MnCl2, 5 mM dithiothreitol, (DTT), 0.01% bovine serum albumin (BSA), and 0.005% Tween 20 in 20 mM Tris-HCl, pH 7.5, with a final reaction volume of 25 μL. The PPNDS and compound 1 were used as a positive controls. RdRps were incubated for 10 mins at 30 °C in the presence of the test compounds or the compound vehicle DMSO (0.5% vol/vol) before addition into the reaction mixture, which was then allowed to run 15 min at 30 °C then terminated with 10 mM EDTA, followed by PicoGreen staining and dsRNA quantitation. GraphPad Prism V6.05 (La Jolla, CA, USA) was used to plot the IC50 values. A secondary gel-based polymerase activity assay was used as a counter-screen as described below, to exclude the possibility of RdRp activity enhancement. Primed elongation activity was examined in a gel-based assay as previously described[12],[29] using the RNA template (PE44-NoV). Gels were imaged using BioRad (Hercules, CA, U.SA) Geldoc Universal Hood II, running BioRad Image Lab software, V4.1, build 16.

[2] = Supplementary Table S1, at least two independent experiments
[3] = Table 2, RAW 264.7, range 0.6–100 µM, at least three independent experiments
[4] = Table 2, at least three independent experiments

| SMILES | EC50 (MNV; [2]) [µM] | CC50 at 3 days [1, 2] [µM] | IC50 (HuNoV (GII.4) RdRp) [µM] | inhibition at 20 µM (HuNoV (GII.4) RdRp) [%] | also measured |
| --- | --- | --- | --- | --- | --- |
| O=C1NN(c2ccc(C(=O)O)cc2)C(=O)/C1=C/c1ccc(-c2ccc(S(=O)(=O)Nc3ccccc3)cc2)o1 [Compound 2, (E)-4-(3,5-dioxo-4-((5-(4-(N-phenylsulfamoyl)phenyl)furan-2-yl)methylene)pyrazolidin-1-yl)benzoic acid] | > 100 | > 100 | 17.2 ± 2.4 |  |  |
| C[C@@]1(O)[C@H](O)[C@@H](CO)O[C@H]1n1ccc(N)nc1=O [Compound 2CMC, 2′-C-methylcytidine, reference compound] |  |  |  |  | EC50 (MNV; [3]): 2 ± 1 µM; CC50 at 3 days [1, 4]: 16 ± 2 µM |
| O=C1NN(c2cccc(C(=O)O)c2)C(=O)/C1=C/c1ccc(-c2ccc(S(=O)(=O)Nc3ccccc3)cc2)o1 [Compound 3, (E)-3-(3,5-dioxo-4-((5-(4-(N-phenylsulfamoyl)phenyl)furan-2-yl)methylene)pyrazolidin-1-yl)benzoic acid] | > 100 | > 100 | 22.5 ± 6.5 |  |  |
| O=C1NN(c2ccccc2)C(=O)/C1=C/c1ccc(-c2ccc(S(=O)(=O)Nc3ncccn3)cc2)o1 [Compound 4, (E)-4-(5-((3,5-dioxo-1-phenylpyrazolidin-4-ylidene)methyl)furan-2-yl)-N-(pyrimidin-2-yl)benzenesulfonamide] | > 50 | 60 ± 21 |  |  | inhibition at 100 µM (HuNoV (GII.4) RdRp; 100 µM, read-out: inhibition of RdRp activity at the maximum concentration tested): 15% |
| O=C1NN(c2ccccc2)C(=O)/C1=C/c1ccc(-c2ccc(S(=O)(=O)Nc3ncco3)cc2)o1 [Compound 5, (E)-4-(5-((3,5-dioxo-1-phenylpyrazolidin-4-ylidene)methyl)furan-2-yl)-N-(oxazol-2-yl)benzenesulfonamide] | > 100 | > 100 | 12.8 ± 2.6 |  |  |
| O=C1NN(c2ccccc2)C(=O)/C1=C/c1ccc(-c2ccc(S(=O)(=O)Nc3nc4ccccc4[nH]3)cc2)o1 [Compound 6, (E)-N-(1H-benzo[d]imidazol-2-yl)-4-(5-((3,5-dioxo-1-phenylpyrazolidin-4-ylidene)methyl)furan-2-yl)benzenesulfonamide] | 89 ± 2 | > 100 | 26.7 ± 2 |  |  |
| CCOC(=O)c1cccc(N2NC(=O)/C(=C\c3ccc(-c4ccc(S(=O)(=O)Nc5ccccc5)cc4)o3)C2=O)c1 [Compound 35, Ethyl(E)-3-(3,5-dioxo-4-((5-(4-(N-phenylsulfamoyl)phenyl)furan-2-yl)methylene)pyrazolidin-1-yl)benzoate] | > 100 | > 100 | 18.9 ± 3.1 |  |  |
| O=C(NC(=S)Nc1ccc(N2CCN(C(=O)c3cccs3)CC2)cc1)c1cc2ccccc2s1 [Compound 49, N-((4-(4-(Thiophene-2-carbonyl)piperazin-1-yl)phenyl)carbamothioyl)benzo[b]thiophene-2-carboxamide] |  |  |  | 15 to 20 | EC50 (MNV; [3]): > 100 µM; CC50 at 3 days [1, 4]: > 100 µM |
| O=C(NC(=S)Nc1ccc(N2CCN(C(=O)c3cccs3)CC2)cc1)c1sc2ccccc2c1C(F)(F)F [Compound 50, N-((4-(4-(Thiophene-2-carbonyl)piperazin-1-yl)phenyl)carbamothioyl)-3-(trifluoromethyl)benzo[b] thiophene-2-carboxamide] |  |  |  | 15 to 20 |  |
| O=C(NC(=S)Nc1ccc(N2CCN(C(=O)c3cccs3)CC2)cc1)c1ccccc1 [Compound 51, N-((4-(4-(Thiophene-2-carbonyl)piperazin-1-yl)phenyl)carbamothioyl)benzamide] |  |  |  | ~15 |  |
| O=C(NC(=S)Nc1ccc(N2CCN(C(=O)c3ccccc3)CC2)cc1)c1sc2ccccc2c1Cl [Compound 54, N-((4-(4-Benzoylpiperazin-1-yl)phenyl)carbamothioyl)-3-chlorobenzo[b]thiophene-2-carboxamide] |  |  |  | ≤ 60 | EC50 (MNV; [3]): > 100 µM; CC50 at 3 days [1, 4]: 4.5 ± 0.7 µM |
| O=C(NC(=S)Nc1ccc(N2CCN(C(=O)c3ccccc3)CC2)cc1)c1ccccc1 [Compound 55, N-((4-(4-Benzoylpiperazin-1-yl)phenyl)carbamothioyl)benzamide] |  |  |  | ~20 | EC50 (MNV; [3]): > 100 µM; CC50 at 3 days [1, 4]: 61.9 µM |
| O=C(NC(=S)Nc1ccc(N2CCN(C(=O)c3nccs3)CC2)cc1)c1ccccc1 [Compound 58, N-((4-(4-(Thiazole-2-carbonyl)piperazin-1-yl)phenyl)carbamothioyl)benzamide] |  |  |  | ~20 |  |
| O=C(Nc1ccc(N2CCN(C(=O)c3cccs3)CC2)cc1)c1ccccc1 [Compound 73, N-(4-(4-(thiophene-2-carbonyl)piperazin-1-yl)phenyl)benzamide] |  |  |  | ~40 |  |
